Laboratory results from ChEMBL document CHEMBL5727479, “Fused heteroaryl derivatives as orexin receptor antagonists” (2020).
pIC50: −log10 of the molar value.

Biological target: T1, Orexin receptor type 2 (Homo sapiens, UniProt O43614)
T1 sequence (O43614 whole entry): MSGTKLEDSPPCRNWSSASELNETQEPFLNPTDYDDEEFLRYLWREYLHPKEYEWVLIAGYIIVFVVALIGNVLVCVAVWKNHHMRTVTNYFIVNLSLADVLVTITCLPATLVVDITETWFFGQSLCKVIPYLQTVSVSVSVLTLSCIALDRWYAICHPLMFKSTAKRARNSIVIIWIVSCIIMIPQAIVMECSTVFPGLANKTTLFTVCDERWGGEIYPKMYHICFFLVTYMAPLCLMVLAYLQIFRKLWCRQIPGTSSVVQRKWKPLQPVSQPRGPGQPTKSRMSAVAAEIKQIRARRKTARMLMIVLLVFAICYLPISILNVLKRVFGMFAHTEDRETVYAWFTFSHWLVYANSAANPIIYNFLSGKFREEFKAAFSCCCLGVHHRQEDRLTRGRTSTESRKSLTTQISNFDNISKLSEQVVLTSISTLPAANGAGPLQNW
Test: FLIPR Assay: In a typical experiment the OX1 and OX2 receptor antagonistic activity of the compounds of the present invention was determined in accordance with the following experimental method. For intracellular calcium measurements, Chinese hamster ovary (CHO) cells expressing the rat orexin-1 receptor or the human orexin-2 receptor, are grown in Iscove's modified DMEM containing 2 mM L-glutamine, […], 1% hypoxanthine-thymidine supplement, 100 U/ml penicillin, 100 μg/ml streptomycin and 10% heat-inactivated fetal calf serum (FCS). The cells are seeded at 20,000 cells/well into Becton-Dickinson black 384-well clear bottom sterile plates coated with poly-D-lysine. All reagents are from GIBCO-Invitrogen Corp. The seeded plates are incubated overnight at 37° C. and 5% CO2. Ala-6,12 human orexin-A as the agonist is prepared as a 1 mM stock solution in 1% bovine serum albumin (BSA) and diluted in assay buffer (HBSS containing 20 mM HEPES, 0.1% BSA and 2.5 mM probenecid, pH7.4) for use in the assay at a final concentration of 70 pM. Test compounds are prepared as 10 mM stock solution in DMSO, then diluted in 384-well plates, first in DMSO, then assay buffer. On the day of the assay, cells are washed 3 times with 100 μl assay buffer and then incubated for 60 min (37° C., 5% CO2) in 60 μl assay buffer containing […] Fluo-4AM ester, 0.02% pluronic acid, and 1% BSA.
Type: cell-based

C[C@@H]1CC[C@@H](Sc2nccn3nccc23)CN1C(=O)c1ccccc1-n1nccn1
pIC50: 7.80
